Results from patent US12568969B2, “Pyridine compounds for controlling invertebrate pests” (FMC Corporation, priority 2020, dated 2026).

Experiments:
Type in all cases: in vivo
[1] = test system: sweetpotato whitefly (Bemisia tabaci (Gennadius)); assay: Test F: control of sweetpotato whitefly on cotton plant, spray; details: 312 h, 13 days; for mortality at 50 ppm: sprayed at 50 ppm; for mortality at 250 ppm: sprayed at 250 ppm
Method: (§1) Test compounds were formulated using a solution containing 10% acetone, […] and 300 ppm Activator 909 non-ionic surfactant (Loveland Products, Loveland, Colorado, USA). The formulated compounds were applied in 1 mL of liquid through an atomizer nozzle positioned 1.27 cm (0.5 inches) above the top of each test unit. Test compounds were sprayed at the rates indicated, and each test was replicated three times.
For evaluating control of the sweetpotato whitefly (Bemisia tabaci (Gennadius)) through contact and/or systemic means, the test unit consisted of a small open container with a 12-14-day-old cotton plant inside. Prior to the spray application, both cotyledons were removed from the plant, leaving one true leaf for the assay. Adult whiteflies were allowed to lay eggs on the plant and then were removed from the test unit. Cotton plants infested with at least 15 eggs were submitted to the test for spraying.
Test compounds were formulated and sprayed at 250 and/or 50 ppm. After spraying, the test units were allowed to dry for 1 hour. The cylinders were then removed, and the units were taken to a growth chamber and held for 13 days at 28° C. and 50-70% relative humidity. Each test unit was then visually assessed for insect mortality.

[2] = test system: green peach aphid (Myzus persicae (Sulzer)); assay: Test D: control of green peach aphid on radish plant, spray; details: Myzus persicae, 144 h, 6 days; for mortality at 50 ppm: sprayed at 50 ppm; for mortality at 250 ppm: sprayed at 250 ppm
Method: as §1
For evaluating control of green peach aphid (Myzus persicae (Sulzer)) through contact and/or systemic means, the test unit consisted of a small open container with a 12-15-day-old radish plant inside. This was pre-infested by placing on a leaf of the test plant 30-40 aphids on a piece of leaf excised from a culture plant (cut-leaf method). The aphids moved onto the test plant as the leaf piece desiccated. After pre-infestation, the soil of the test unit was covered with a layer of sand.
[…] After spraying of the formulated test compound, each test unit was allowed to dry for 1 hour and then a black, screened cap was placed on top. The test units were held for 6 days in a growth chamber at 19-21° C. and 50-70% relative humidity. Each test unit was then visually assessed for insect mortality.

[3] = test system: cotton melon aphid (Aphis gossypii (Glover)); assay: whole plant or invertebrate; details: Aphis gossypii, 144 h, 6 days; for mortality at 50 ppm: sprayed at 50 ppm; for mortality at 250 ppm: sprayed at 250 ppm
Method: as §1
[…] This was pre-infested with 30-40 insects on a piece of leaf according to the cut-leaf method, and the soil of the test unit was covered with a layer of sand.
Test compounds were formulated and sprayed at 250 and/or 50 ppm. After spraying, the test units were maintained in a growth chamber for 6 days at 19° C. and 70% relative humidity. Each test unit was then visually assessed for insect mortality.

[4] = test system: diamondback moth (Plutella xylostella (L.)); assay: Test A: control of diamondback moth on mustard plant, spray; details: sprayed at 250 ppm; assessed after 6 days
Method: as §1
For evaluating control of diamondback moth (Plutella xylostella (L.)) the test unit consisted of a small open container with a 12-14-day-old mustard plant inside. This was pre-infested with ˜50 neonate larvae that were dispensed into the test unit via corn cob grits using an inoculator. The larvae moved onto the test plant after being dispensed into the test unit.
Test compounds were formulated and sprayed at 250 ppm. After spraying of the formulated test compound, each test unit was allowed to dry for 1 hour and then a black, screened cap was placed on top. The test units were held for 6 days in a growth chamber at 25° C. and 70% relative humidity. Plant feeding damage was then visually assessed based on foliage consumed, and larvae were assessed for mortality.

[5] = test system: corn planthopper (Peregrinus maidis (Ashmead)); assay: whole plant or invertebrate; details: Peregrinus maidis, 144 h, 6 days; for mortality at 50 ppm: sprayed at 50 ppm; for mortality at 250 ppm: sprayed at 250 ppm; for mortality at 10 ppm: sprayed at 10 ppm
Method: as §1
For evaluating control of corn planthopper (Peregrinus maidis (Ashmead)) through contact and/or systemic means, the test unit consisted of a small open container with a 3-4-day-old corn (maize) plant inside. White sand was added to the top of the soil prior to application of the test compound.
Test compounds were formulated and sprayed at 250 and/or 50 ppm and/or 10 ppm. After spraying of the formulated test compound, the test units were allowed to dry for 1 h before they were post-infested with ˜15-20 nymphs (18-to-21-day-old). A black, screened cap was placed on the top of each test unit, and the test units were held for 6 days in a growth chamber at 22-24° C. and 50-70% relative humidity. Each test unit was then visually assessed for insect mortality.

| Compound | mortality at 50 ppm [1] [%] | mortality at 250 ppm [1] [%] | mortality at 50 ppm [2] [%] | mortality at 250 ppm [2] [%] | mortality at 50 ppm [3] [%] | mortality at 250 ppm [3] [%] | control efficacy (40% or less feeding damage and/or 100% mortality) [4] | mortality at 50 ppm [5] [%] | mortality at 250 ppm [5] [%] | mortality at 10 ppm [5] [%] |
| --- | --- | --- | --- | --- | --- | --- | --- | --- | --- | --- |
| COC(c1ccc(SC(F)(F)F)cc1)c1c(F)cncc1-n1cncn1 (stereo not drawn) [Compound 71] | ≥ 70 | ≥ 70 | ≥ 80 | ≥ 80 | ≥ 80 | ≥ 80 |  |  |  |  |
| Cn1ccc(-c2cncc(F)c2C(F)c2ccc(OC(F)(F)F)cc2)n1 (stereo not drawn) [Compound 59] |  |  |  |  |  | ≥ 80 | very good to excellent levels of control efficacy |  |  |  |
| FC(c1ccc(OC(F)(F)F)cc1)c1c(Br)cncc1-n1nccn1 (stereo not drawn) [Compound 17] |  | ≥ 70 | ≥ 80 | ≥ 80 | ≥ 80 | ≥ 80 |  | ≥ 80 | ≥ 80 |  |
| FC(c1ccc(SC(F)(F)F)cc1)c1c(Cl)cncc1-c1cnco1 (stereo not drawn) [Compound 105] |  |  |  |  | ≥ 80 | ≥ 80 | very good to excellent levels of control efficacy | ≥ 80 | ≥ 80 |  |
| FC(c1ccc2c(c1)OC(F)(F)O2)c1c(Br)cncc1-n1nccn1 (stereo not drawn) [Compound 147] |  |  |  |  |  |  | very good to excellent levels of control efficacy |  |  |  |
| FC(c1ccc(OC(F)(F)F)cc1)c1c(Cl)cncc1-n1cccn1 (stereo not drawn) [Compound 88] | ≥ 70 | ≥ 70 |  | ≥ 80 | ≥ 80 | ≥ 80 |  | ≥ 80 | ≥ 80 |  |
| Fc1cncc(-c2cccs2)c1C(F)c1ccc(OC(F)(F)F)cc1 (stereo not drawn) [Compound 45] |  |  |  |  | ≥ 80 | ≥ 80 | very good to excellent levels of control efficacy | ≥ 80 |  | ≥ 80 |
| Cc1noc(-c2cncc(F)c2C(F)c2ccc(OC(F)(F)F)cc2)n1 (racemic) [Compound 39] |  |  |  |  |  |  | very good to excellent levels of control efficacy |  |  |  |
| [O-][S+](c1ccc(C(F)c2c(F)cncc2-n2nccn2)cc1)C(F)(F)F (stereo not drawn) [Compound 67, 3-fluoro-4-[fluoro-[4-(trifluoromethylsulfinyl)phenyl]methyl]-5-(triazol-2-yl)pyridine] |  | ≥ 70 | ≥ 80 | ≥ 80 | ≥ 80 | ≥ 80 |  | ≥ 80 | ≥ 80 |  |
| CCn1nccc1-c1cncc(F)c1C(F)c1ccc(OC(F)(F)F)cc1 (stereo not drawn) [Compound 55] |  |  |  |  |  |  | very good to excellent levels of control efficacy | ≥ 80 |  |  |
| FC(c1ccc(OC(F)(F)F)cc1)c1c(C2CC2)cncc1-n1nccn1 (racemic) [Compound 53] |  |  |  |  |  |  | very good to excellent levels of control efficacy |  |  |  |
| CC(C)(C)c1ccc(C(F)c2c(Br)cncc2-n2nccn2)cc1 (stereo not drawn) [Compound 108] | ≥ 70 | ≥ 70 |  |  |  |  |  | ≥ 80 | ≥ 80 |  |
| COC(c1ccc(OC(F)(F)F)cc1)c1ncncc1-n1nccn1 (stereo not drawn) [Compound 175] |  |  |  |  |  |  | very good to excellent levels of control efficacy |  |  |  |
| [O-][S+](c1ccc(C(F)c2c(Cl)cncc2-n2nccn2)cc1)C(F)(F)F (stereo not drawn) [Compound 90] | ≥ 70 | ≥ 70 | ≥ 80 | ≥ 80 | ≥ 80 | ≥ 80 |  | ≥ 80 | ≥ 80 |  |
| COC(c1ccc2c(c1)OC(F)(F)O2)c1c(F)cncc1-n1cccn1 (stereo not drawn) [Compound 155] |  |  |  |  |  |  | very good to excellent levels of control efficacy |  |  |  |
| Fc1cncc(-n2nccn2)c1C(F)c1ccc(Br)nc1 (stereo not drawn) [Compound 166] |  |  |  |  |  |  | very good to excellent levels of control efficacy |  |  |  |
| FC(c1ccc(SC(F)(F)F)cc1)c1c(I)cncc1-n1nccn1 (stereo not drawn) [Compound 95] | ≥ 70 | ≥ 70 | ≥ 80 | ≥ 80 | ≥ 80 | ≥ 80 |  | ≥ 80 | ≥ 80 | ≥ 80 |
| FC(c1ccc(OC(F)(F)F)cc1)c1c(Cl)cncc1-c1cnco1 (stereo not drawn) [Compound 60] |  |  |  |  |  | ≥ 80 | very good to excellent levels of control efficacy |  |  |  |
| FC(c1ccc(Br)cc1)c1c(Cl)cncc1-n1nccn1 (stereo not drawn) [Compound 109] | ≥ 70 | ≥ 70 |  |  | ≥ 80 | ≥ 80 |  | ≥ 80 | ≥ 80 | ≥ 80 |
| Cc1noc(-c2cncc(Cl)c2C(F)c2ccc(SC(F)(F)F)cc2)n1 (racemic) [Compound 103] |  |  |  |  |  |  | very good to excellent levels of control efficacy |  |  |  |
| FC(c1ccc(OC(F)(F)F)cc1)c1ccncc1-n1cncn1 (stereo not drawn) [Compound 12] |  | ≥ 70 |  | ≥ 80 | ≥ 80 | ≥ 80 |  | ≥ 80 | ≥ 80 |  |
| O=S(=O)(c1ccc(C(F)c2c(Cl)cncc2-n2nccn2)cc1)C(F)(F)F (stereo not drawn) [Compound 91] | ≥ 70 | ≥ 70 | ≥ 80 | ≥ 80 | ≥ 80 | ≥ 80 |  |  |  |  |
| FC(c1ccc(OC(F)(F)F)cc1)c1c(Cl)cncc1-n1cncn1 (stereo not drawn) [Compound 15] |  | ≥ 70 | ≥ 80 | ≥ 80 |  |  |  | ≥ 80 | ≥ 80 |  |
| Fc1cncc(-c2cnco2)c1C(F)c1ccc(SC(F)(F)F)cc1 (stereo not drawn) [Compound 100] |  |  |  |  | ≥ 80 | ≥ 80 | very good to excellent levels of control efficacy |  |  |  |
| COC(c1ccc(SC(F)(F)F)cc1)c1c(Cl)cncc1-n1nccn1 (stereo not drawn) [Compound 127] | ≥ 70 | ≥ 70 | ≥ 80 | ≥ 80 | ≥ 80 | ≥ 80 |  | ≥ 80 | ≥ 80 | ≥ 80 |
| Cc1noc(-c2cncc(Cl)c2C(F)c2ccc([S+]([O-])C(F)(F)F)cc2)n1 (mixture of isomers) [Compound 104] |  |  |  |  |  |  | very good to excellent levels of control efficacy |  |  |  |
| Fc1cncc(-n2cccn2)c1C(F)c1cnc(C(F)(F)F)nc1 (stereo not drawn) [Compound 162] |  |  |  |  |  |  | very good to excellent levels of control efficacy |  |  |  |
| Fc1cncc(-n2nccn2)c1C(F)c1ccc(C(F)(F)F)cn1 (stereo not drawn) [Compound 172] |  |  |  |  |  |  | very good to excellent levels of control efficacy |  |  |  |
| Fc1cncc(-n2cccn2)c1C(F)c1ccc(C(F)(F)F)cn1 (stereo not drawn) [Compound 171] |  |  |  |  |  |  | very good to excellent levels of control efficacy |  |  |  |
